# Laboratory results reported in US7425640B2, “Substituted 5-carboxyamide pyrazoles and [1,2,4]triazoles as antiviral agents” (priority 2004, dated 2008).
# Target: HCV RNA-dependent RNA polymerase NS5B (Δ21) (Hepatitis C virus genotype 1b, UniProt P26663)
# Experiment: Assay for HCV RNA-dependent RNA polymerase activity (SPA, [3H]-GTP incorporation)
# Type: biochemical
# Conditions: read-out: Δ21 Activity (IC50 μM); 50 nM NS5B (Δ21), class symbols
# Description: Inhibitory activity of the present compounds against HCV RNA-dependent RNA polymerase was assayed according to the methods disclosed in United States Patent Application US2004/038993, content of which is incorporated herein by reference; and those described in Ferrari, E.; Wright-Minogue, J.; Fang, J. W. S.; Baroudy, B. M.; Lau, J. Y. N.; Hong, Z. J. Virol. 1999, 73, 1649.
# Briefly, 50 μl reactions containing 20 mM HEPES (pH 7.3), 7.5 mM DTT, 20 units/ml RNasIN, 0.5 μg/ml biotinylated oligoG12, 5 μg/ml polyC, 5 μM GTP, 20 μCi/ml [^3H]-GTP, 10 mM MgCl2, 60 mM NaCl, 100 μg/ml BSA, and 50 nM NS5B (Δ21) were incubated at room temperature for three hours in 96-well plates with or without test compounds. Assay was terminated by the addition of 50 μl 10 mg/ml streptavidin-coated SPA beads supplemented with 100 mM EDTA, and the incorporation of labeled GTP determined by a TopCount Scintillation Counter. IC50 values were calculated from single experiments using 11 serial 2-fold dilutions (0.05-50 μM), and data were considered reliable only when the IC50 value of a positive internal control was within standard deviation range.
# Chain of HCV RNA-dependent RNA polymerase NS5B (Δ21) (P26663 2420-2989, stated change not applied): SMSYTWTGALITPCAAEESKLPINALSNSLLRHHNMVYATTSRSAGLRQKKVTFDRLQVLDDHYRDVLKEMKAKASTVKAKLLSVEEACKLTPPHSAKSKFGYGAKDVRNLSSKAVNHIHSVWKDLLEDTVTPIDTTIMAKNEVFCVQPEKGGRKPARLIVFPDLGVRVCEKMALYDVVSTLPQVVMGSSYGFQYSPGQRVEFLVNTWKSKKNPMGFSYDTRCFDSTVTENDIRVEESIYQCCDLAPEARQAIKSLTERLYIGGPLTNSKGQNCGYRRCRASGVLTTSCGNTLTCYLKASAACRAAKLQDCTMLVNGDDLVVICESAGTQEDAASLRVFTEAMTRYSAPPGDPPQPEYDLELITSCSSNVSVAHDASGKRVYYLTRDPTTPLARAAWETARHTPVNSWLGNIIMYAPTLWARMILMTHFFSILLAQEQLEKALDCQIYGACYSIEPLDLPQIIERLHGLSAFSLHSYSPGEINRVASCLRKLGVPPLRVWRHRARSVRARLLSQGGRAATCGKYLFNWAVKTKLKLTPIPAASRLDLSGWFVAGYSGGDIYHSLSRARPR
row,Structure (SMILES),IC50
1,CCOC(=O)c1cc(C(=O)N[C@H]2CCCC[C@@H]2OCc2ccccc2)n(CC(=O)Nc2cc(C)ccc2OCC2CCCC2)n1 [Compound 99],0.1 to 1 µM
2,O=C(Cn1nc(C(=O)NCC2CC2)cc1C(=O)N[C@H]1CCCC[C@@H]1OCc1ccccc1)N[C@H]1CCCC[C@@H]1OCc1ccccc1 [Compound 100],0.1 to 1 µM
3,CC(CCc1ccccc1)NC(=O)c1cc(C(=O)N[C@H]2CCCC[C@@H]2OCc2ccccc2)n(CC(=O)N[C@H]2CCCC[C@@H]2OCc2ccccc2)n1 (some centres unmarked) [Compound 101],0.1 to 1 µM
4,O=C(Cn1nc(NC(=O)Nc2ccccc2)cc1C(=O)N[C@H]1CCCC[C@@H]1OCc1ccccc1)N[C@H]1CCCC[C@@H]1OCc1ccccc1 [Compound 102],0.1 to 1 µM
5,O=C(Cn1nc(C(=O)NCCc2ccccc2Cl)cc1C(=O)N[C@H]1CCCC[C@@H]1OCc1ccccc1)N[C@H]1CCCC[C@@H]1OCc1ccccc1 [Compound 103],0.1 to 1 µM
6,O=C(Cn1nc(C(=O)NCCCc2ccccc2)cc1C(=O)N[C@H]1CCCC[C@@H]1OCc1ccccc1)N[C@H]1CCCC[C@@H]1OCc1ccccc1 [Compound 104],0.1 to 1 µM
7,CC(C)(C)OC(=O)CNC(=O)c1cc(C(=O)N[C@H]2CCCC[C@@H]2OCc2ccccc2)n(CC(=O)N[C@H]2CCCC[C@@H]2OCc2ccccc2)n1 [Compound 105],0.1 to 1 µM
8,Cc1ccc(S(=O)(=O)Nc2cc(C(=O)N[C@H]3CCCC[C@@H]3OCc3ccccc3)n(CC(=O)N[C@H]3CCCC[C@@H]3OCc3ccccc3)n2)cc1 [Compound 106],0.1 to 1 µM
9,O=C(Cn1nc(C(=O)NC2CCc3ccccc32)cc1C(=O)N[C@H]1CCCC[C@@H]1OCc1ccccc1)N[C@H]1CCCC[C@@H]1OCc1ccccc1 (some centres unmarked) [Compound 107],0.1 to 1 µM
10,O=C(Cn1nc(NS(=O)(=O)c2cc(Cl)cc(Cl)c2O)cc1C(=O)N[C@H]1CCCC[C@@H]1OCc1ccccc1)N[C@H]1CCCC[C@@H]1OCc1ccccc1 [Compound 108],0.1 to 1 µM
11,CON(C)C(=O)c1cc(C(=O)N[C@H]2CCCC[C@@H]2OCc2ccccc2)n(CC(=O)N[C@H]2CCCC[C@@H]2OCc2ccccc2)n1 [Compound 109],0.1 to 1 µM
12,CCCCNC(=O)c1cc(C(=O)N[C@H]2CCCC[C@@H]2OCc2ccccc2)n(CC(=O)N[C@H]2CCCC[C@@H]2OCc2ccccc2)n1 [Compound 110],0.1 to 1 µM
13,C=CCNC(=O)c1cc(C(=O)N[C@H]2CCCC[C@@H]2OCc2ccccc2)n(CC(=O)N[C@H]2CCCC[C@@H]2OCc2ccccc2)n1 [Compound 111],0.1 to 1 µM
14,Cc1nn(C)c(Cl)c1S(=O)(=O)Nc1cc(C(=O)N[C@H]2CCCC[C@@H]2OCc2ccccc2)n(CC(=O)N[C@H]2CCCC[C@@H]2OCc2ccccc2)n1 [Compound 112],0.1 to 1 µM
15,CN(C)c1cccc2c(S(=O)(=O)Nc3cc(C(=O)N[C@H]4CCCC[C@@H]4OCc4ccccc4)n(CC(=O)N[C@H]4CCCC[C@@H]4OCc4ccccc4)n3)cccc12 [Compound 113],0.1 to 1 µM
16,Cc1ccc(OCC(C)(C)C)c(NC(=O)c2cc(C(=O)O)nn2CC(=O)N[C@H]2CCCC[C@@H]2OCc2ccccc2)c1 [Compound 114],0.1 to 1 µM
17,O=C(Cn1nc(C(=O)Nc2nnn[nH]2)nc1C(=O)N[C@H]1CCCC[C@@H]1OCc1ccccc1)N[C@H]1CCCC[C@@H]1OCc1ccccc1 [Compound 115],0.1 to 1 µM
18,CC(C)(C)ONC(=O)c1cc(C(=O)N[C@H]2CCCC[C@@H]2OCc2ccccc2)n(CC(=O)N[C@H]2CCCC[C@@H]2OCc2ccccc2)n1 [Compound 116],0.1 to 1 µM
19,CC(CNC(=O)c1cc(C(=O)N[C@H]2CCCC[C@@H]2OCc2ccccc2)n(CC(=O)N[C@H]2CCCC[C@@H]2OCc2ccccc2)n1)c1ccccc1 (some centres unmarked) [Compound 117],0.1 to 1 µM
20,O=C(Cn1nc(NC(=O)NC2CCCCC2)cc1C(=O)N[C@H]1CCCC[C@@H]1OCc1ccccc1)N[C@H]1CCCC[C@@H]1OCc1ccccc1 [Compound 118],0.1 to 1 µM
21,O=C(Cn1nc(C(=O)N2c3ccccc3CCc3ccccc32)cc1C(=O)N[C@H]1CCCC[C@@H]1OCc1ccccc1)N[C@H]1CCCC[C@@H]1OCc1ccccc1 [Compound 119],0.1 to 1 µM
22,O=C(Cn1nc(C(=O)O)cc1C(=O)N[C@H]1CCCC[C@@H]1NCc1ccccc1)N[C@H]1CCCC[C@@H]1OCc1ccccc1 [Compound 120],0.1 to 1 µM
23,O=C(Cn1nc(NC(=O)NCc2ccccc2)cc1C(=O)N[C@H]1CCCC[C@@H]1OCc1ccccc1)N[C@H]1CCCC[C@@H]1OCc1ccccc1 [Compound 121],0.1 to 1 µM
24,O=C(Cn1nc(C(=O)NC2CC2)cc1C(=O)N[C@H]1CCCC[C@@H]1OCc1ccccc1)N[C@H]1CCCC[C@@H]1OCc1ccccc1 [Compound 122],0.1 to 1 µM
25,CN(C(=O)Cn1nc(C(=O)O)cc1C(=O)N[C@H]1CCCC[C@@H]1OCc1ccccc1)[C@H]1CCCC[C@@H]1OCc1ccccc1 [Compound 123],0.1 to 1 µM

row,Structure (SMILES),IC50
1,CCCCNC(=O)Nc1cc(C(=O)N[C@H]2CCCC[C@@H]2OCc2ccccc2)n(CC(=O)N[C@H]2CCCC[C@@H]2OCc2ccccc2)n1 [Compound 124],0.1 to 1 µM
2,Cc1ccc(OCC2CCCCC2)c(NC(=O)c2cc(C(=O)Nc3nnn[nH]3)nn2CC(=O)N[C@H]2CCCC[C@@H]2OCc2ccccc2)c1 [Compound 125],0.1 to 1 µM
3,CC(=O)c1cc(C(=O)N[C@H]2CCCC[C@@H]2OCc2ccccc2)n(CC(=O)N[C@H]2CCCC[C@@H]2OCc2ccccc2)n1 [Compound 126],0.1 to 1 µM
4,O=C(Cn1nc(C(=O)NCc2ccc(C(F)(F)F)cc2)cc1C(=O)N[C@H]1CCCC[C@@H]1OCc1ccccc1)N[C@H]1CCCC[C@@H]1OCc1ccccc1 [Compound 127],0.1 to 1 µM
5,O=C(Cn1nc(C(=O)NC2CCCC2)cc1C(=O)N[C@H]1CCCC[C@@H]1OCc1ccccc1)N[C@H]1CCCC[C@@H]1OCc1ccccc1 [Compound 128],0.1 to 1 µM
6,O=C(Cn1nc(C(=O)NCCc2ccc(Cl)cc2)cc1C(=O)N[C@H]1CCCC[C@@H]1OCc1ccccc1)N[C@H]1CCCC[C@@H]1OCc1ccccc1 [Compound 129],0.1 to 1 µM
7,CN(Cc1cccc2ccccc12)C(=O)c1cc(C(=O)N[C@H]2CCCC[C@@H]2OCc2ccccc2)n(CC(=O)N[C@H]2CCCC[C@@H]2OCc2ccccc2)n1 [Compound 130],0.1 to 1 µM
8,O=C(Cn1nc(C(=O)NCCc2ccccc2)cc1C(=O)N[C@H]1CCCC[C@@H]1OCc1ccccc1)N[C@H]1CCCC[C@@H]1OCc1ccccc1 [Compound 131],0.1 to 1 µM
9,O=C(Cn1nc(C(=O)O)cc1C(=O)N[C@@H]1CCCC[C@@H]1OCc1ccccc1)N[C@H]1CCCC[C@H]1OCc1ccccc1 [Compound 132],0.1 to 1 µM
10,CN(C(=O)c1cc(C(=O)O)nn1CC(=O)N[C@H]1CCCC[C@@H]1OCc1ccccc1)[C@H]1CCCC[C@@H]1OCc1ccccc1 [Compound 133],0.1 to 1 µM
11,O=C(Cn1nccc1C(=O)N[C@H]1CCCC[C@@H]1OCc1ccccc1)N[C@H]1CCCC[C@@H]1OCc1ccccc1 [Compound 134],0.1 to 1 µM
12,CNC(=O)Nc1cc(C(=O)N[C@H]2CCCC[C@@H]2OCc2ccccc2)n(CC(=O)N[C@H]2CCCC[C@@H]2OCc2ccccc2)n1 [Compound 135],0.1 to 1 µM
13,CCOC(=O)c1cc(C(=O)N[C@H]2CCCC[C@@H]2OCc2ccccc2)n(CC(=O)Nc2ccccc2Oc2ccc(Cl)c(C)c2)n1 [Compound 136],0.1 to 1 µM
14,O=C(Cn1nc(C(=O)NCC2CCCCC2)cc1C(=O)N[C@H]1CCCC[C@@H]1OCc1ccccc1)N[C@H]1CCCC[C@@H]1OCc1ccccc1 [Compound 137],0.1 to 1 µM
15,O=C(Cn1nc(C(=O)NCc2ccncc2)cc1C(=O)N[C@H]1CCCC[C@@H]1OCc1ccccc1)N[C@H]1CCCC[C@@H]1OCc1ccccc1 [Compound 138],0.1 to 1 µM
16,CCOC(=O)c1cc(C(=O)N[C@@H]2CCCC[C@@H]2OCc2ccccc2)n(CC(=O)N[C@H]2CCCC[C@H]2OCc2ccccc2)n1 [Compound 139],0.1 to 1 µM
17,O=C(Cn1nc(C(=O)N2CCN(c3ccccc3)CC2)cc1C(=O)N[C@H]1CCCC[C@@H]1OCc1ccccc1)N[C@H]1CCCC[C@@H]1OCc1ccccc1 [Compound 140],0.1 to 1 µM
18,CCOC(=O)c1nc(C(=O)N[C@H]2CCCC[C@@H]2OCc2ccccc2)n(CC(=O)N[C@H]2CCCC[C@@H]2OCc2ccccc2)n1 [Compound 141],0.1 to 1 µM
19,O=C(Cn1nc(C(=O)NCc2cccnc2)cc1C(=O)N[C@H]1CCCC[C@@H]1OCc1ccccc1)N[C@H]1CCCC[C@@H]1OCc1ccccc1 [Compound 142],0.1 to 1 µM
20,O=C(Cn1nc(C=NO)cc1C(=O)N[C@H]1CCCC[C@@H]1OCc1ccccc1)N[C@H]1CCCC[C@@H]1OCc1ccccc1 [Compound 143],0.1 to 1 µM
21,O=C(Cn1nc(NS(=O)(=O)c2cccc3cccnc23)cc1C(=O)N[C@H]1CCCC[C@@H]1OCc1ccccc1)N[C@H]1CCCC[C@@H]1OCc1ccccc1 [Compound 144],0.1 to 1 µM
22,CNC(=O)c1cc(C(=O)N[C@H]2CCCC[C@@H]2OCc2ccccc2)n(CC(=O)N[C@H]2CCCC[C@@H]2OCc2ccccc2)n1 [Compound 145],0.1 to 1 µM
23,COC(CNC(=O)c1cc(C(=O)N[C@H]2CCCC[C@@H]2OCc2ccccc2)n(CC(=O)N[C@H]2CCCC[C@@H]2OCc2ccccc2)n1)OC [Compound 146],0.1 to 1 µM
24,Nc1c(C(=O)O)nn(CC(=O)N[C@H]2CCCC[C@@H]2OCc2ccccc2)c1C(=O)N[C@H]1CCCC[C@@H]1OCc1ccccc1 [Compound 147],0.1 to 1 µM
25,O=C(Cn1nc(C(=O)NCc2ccc(Cl)cc2Cl)cc1C(=O)N[C@H]1CCCC[C@@H]1OCc1ccccc1)N[C@H]1CCCC[C@@H]1OCc1ccccc1 [Compound 148],0.1 to 1 µM
